According to patent US20050090480A1, “Use of selected amino acid-zinc complexes as anti-malarials” (Council of Scientific & Industrial Research, priority 2003, published 2005):

How the values were obtained:
[1] = test system: chloroquine-resistant (W2Mef) strain of P. falciparum
Protocol: The W2Mef strain was used for these experiments. […] The following was the protocol for present experiment.
In the present study, Chloroquine-sensitive (3D7) strain and chloroquine-resistant (W2Mef) strain were used. The cultures were maintained in vitro using culture media consisting of standard RPMI-1640 supplemented with 10% heat inactivated Human Type O^+ Serum, 3.6% NaHCO3 at a hematocrit of 4%. All the assays were carried out in 96 well, flat bottom microtitre plates. For the synchronization of cultures, 5% sorbitol was used. The growth of the parasite was measured with incorporation of Hypoxanthine. A 200 μl volume of the culture parasite was added to each well initially. Different antimalarial compounds at varied concentrations were added to the wells. All the compounds were tested on both chloroquine-sensitive and chloroquine resistant strains. The plates were then placed in an airtight chamber and flushed with the gas mixture (5% CO2, 5% O2 and 90% N2). The plates were finally stored in an incubator at 37° C. for 24 hours.
At the end of the incubation period, 5 μl of diluted ^3H-Hypoxanthine—to a final concentration of 1 μCi—was added to each well. The plates were then returned to the airtight chamber and then flushed with the above gas mixture and incubated for an additional 24 hours. The plates were then stored at −70° C. until required for detection of incorporated radioactivity. When necessary, the plates were thawed and the cells were harvested onto filter-mats. These filter-mats were then dried and sealed.

Plasmodium yeoeli = test system: Plasmodium yeoeli
Description: For these experiments, the mouse malaria parasite Plasmodium yeoeli was used as this strain is considered to be closer to human parasite, P. falciparum. Groups of eight mice each were infected with 10^6 parasites/mouse through an intra-peritoneal injection. […] The drug was given once a day for a total period of six days. The mice were then left alone for an additional period of three days, after which the number of survivors were counted (i.e. at […] after infection). The results are shown here in FIG. 5. Group 1 represents a control group of uninfected mice, with no drug given. Group 3 represents the group of infected mice, again with no drug given (i.e. vehicle only).

W2Mef = conditions: FIG. 8
P. falciparum = P. falciparum in vitro culture, parasitemia by Giemsa stained smear after 48 hrs; assay type: cell-based, Plasmodium falciparum; conditions: for inhibition of growth of P. falciparum: 10 μM concentration, 48 hrs incubation at 37° C.
Protocol: Selective enrichment of activity was monitored at every step using P. falciparum culture for in vitro studies.
Zinc complex of L-proline was dissolved in normal saline and filter sterilized. The compound was added to the parasite culture at different concentrations ranging from 1- 10 μM. The compound was tested at the indicated doses using the experimental protocol as described below:
Protocol for Testing the Effect of Drug on P. falciparum for In Vitro Studios
The P. falciparum cultures were synchronized at first by sorbitol treatment. The compound of various concentrations was added to the 200 μl of synchronized P. falciparum culture (1% parasitemia). The parasitemia was checked by making Giemsa stained smear after 48 hrs of incubation at 37° C.

[2] = test system: 3D7 strain of P. falciparum; conditions: light microscope (FIG. 3)
Protocol: In this experiment, slides were prepared, stained with Giemsa and examined under a light microscope. Representative pictures are show in FIG. 3.

P. berghei = conditions: about 1 mg to 50 mg/kg
Protocol: BALB/c mice (4-6 weeks old) were infected with 10^5 P. berghei parasites/mouse. […] After four days of infection, various concentrations of compound, at the doses of 10 mg/kg (Group 2) and 20 mg/kg (Group 3) body weight was injected to the mice. The control group (Group 1) indicates the group of mice infected with the parasite, but without any drug (i.e. vehicle only). Group 4 represents a group of infected mice treated with Pyrimethamine (at 20 mg/kg body weight) using an identical treatment regimen. Each group contained ten mice and the parasitemia levels—obtained from blood smears—are given as a percentage of that obtained in untreated mice (FIG. 4).

Compound	increase in the IC50 value for chloroquine, W2Mef compared with 3D7 strain ([1]; FIG. 6)	inhibits growth of P. yeoeli (Plasmodium yeoeli; about 1 mg to 50 mg/Kg)	percentage of survivors (Plasmodium yeoeli; oral 20 mg/kg body weight once a day for six days, counted twelve days after infection) [%]	manner of action on W2Mef (W2Mef)	inhibition of growth of P. falciparum (P. falciparum) [%]	inhibits growth of P. facliparum (P. falciparum; about 5 μM to 10 μM)	effect on the parasite in stained slides [2]	inhibits growth of P. berghei (P. berghei)	potency against chloroquine-sensitive versus chloroquine-resistant strain ([1]; dose response analysis, 3D7 and W2Mef (FIG. 7))	activity against the chloroquine resistant strain-W2Mef ([1]; preliminary experiments and dose response analysis)
CCN(CC)CCCC(C)Nc1ccnc2cc(Cl)ccc12 (centres unmarked) [chloroquine, Chloroquine, reference compound]	near sevenfold increase	–	–	–	–	–	–	–	–	–
Zinc complex of L-proline [PIZ2]	–	about 90%	88	direct killing	> 80	about 100%	significant disintegration of the parasite	about 80%	remained identical	active
Zinc complexes of L-histidine [Zinc complex of L-histidine]	–	–	–	–	~85	–	–	–	–	–
